Where a name gives a salt, the structure may show the parent alone.

Drawing on patent publication US20230257347A1 (priority 2020, published 2023), this text covers EC50 and IC50 for three molecules.

Assay [1] deals with Adrenergic Receptor β2 (ADRB2) (Homo sapiens, UniProt P07550). The assay is described as follows: cAMP assay, ADRB2. Format: cell-based.
The target of assay [2] is Histamine Receptor H1 (HRH1) (Homo sapiens, UniProt P35367). The assay is described as follows: cell-based.
Assay [3] deals with Arginine Vasopressin Receptor 1A (AVPR1A) (Homo sapiens, UniProt P37288). The assay is described as follows: Calcium flux assay, AVPR1A. The format is cell-based. For orientation: Calcium assays in cells follow changes in intracellular calcium, usually with a dye or a luminescent sensor.
Assay [4] has as its target T1, Muscarinic acetylcholine Receptor M2 (CHRM2) (Homo sapiens, UniProt P08172).
T1 sequence (P08172 1-466): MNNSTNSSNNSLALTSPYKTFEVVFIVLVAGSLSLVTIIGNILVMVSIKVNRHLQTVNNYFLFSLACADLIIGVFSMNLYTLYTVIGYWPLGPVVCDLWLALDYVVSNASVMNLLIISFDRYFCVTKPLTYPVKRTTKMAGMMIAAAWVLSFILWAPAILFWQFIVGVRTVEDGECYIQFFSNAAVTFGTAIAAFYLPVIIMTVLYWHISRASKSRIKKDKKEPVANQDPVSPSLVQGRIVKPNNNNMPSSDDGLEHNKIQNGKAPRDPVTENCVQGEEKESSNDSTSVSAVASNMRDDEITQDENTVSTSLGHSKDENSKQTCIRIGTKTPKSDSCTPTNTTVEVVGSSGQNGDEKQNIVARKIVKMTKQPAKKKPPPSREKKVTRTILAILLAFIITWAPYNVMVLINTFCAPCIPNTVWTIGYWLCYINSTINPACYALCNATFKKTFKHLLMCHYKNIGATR
The assay is described as follows: cAMP assay, CHRM2. The format is cell-based.

For assay [5], the target named is Dopamine Receptor D2 (DRD2S) (Homo sapiens, UniProt P14416). The assay is described as follows: cAMP assay, DRD2S. Format: cell-based. In general terms: Cyclic AMP is a second messenger, typically raised through Gs and lowered through Gi signalling.
Assay [6] deals with T2, Endothelin Receptor Type A (EDNRA) (Homo sapiens, UniProt P25101).
T2 sequence (P25101 21-427): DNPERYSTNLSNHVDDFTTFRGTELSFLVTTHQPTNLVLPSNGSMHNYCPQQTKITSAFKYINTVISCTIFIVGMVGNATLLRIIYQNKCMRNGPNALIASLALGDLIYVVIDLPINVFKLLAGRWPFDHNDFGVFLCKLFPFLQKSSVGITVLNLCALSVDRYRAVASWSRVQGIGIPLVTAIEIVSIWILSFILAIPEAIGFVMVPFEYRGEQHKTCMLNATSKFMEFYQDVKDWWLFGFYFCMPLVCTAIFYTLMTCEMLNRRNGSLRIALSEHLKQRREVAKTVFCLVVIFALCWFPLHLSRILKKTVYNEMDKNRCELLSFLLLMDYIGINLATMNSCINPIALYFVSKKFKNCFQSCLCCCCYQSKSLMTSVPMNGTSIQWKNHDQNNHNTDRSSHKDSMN
The assay is described as follows: Calcium flux assay, EDNRA. Format: cell-based.

Assay [7] has as its target Opioid Receptor Kappa 1 (OPRK1) (Homo sapiens, UniProt P41145). The assay is described as follows: cAMP assay, OPRK1. The format is cell-based.
Assay [8] deals with T3, Nicotinic acetylcholine Receptor α4 β2 (nAChR(a4/b2)) (Homo sapiens, UniProt P17787+P43681).
T3 construct: expressed in transfected cells
The assay is described as follows: cell-based.

The target in assay [9] is T4, N-methyl-D-aspartate (NMDA) Glutamate Receptor 1A/2B (NMDAR (1A/2B)) (Homo sapiens, UniProt Q05586+Q13224).
T4 construct: expressed in transfected cells
The assay is described as follows: Ion channel assay, NMDAR (1A/2B). The format is cell-based.

Assay [10] concerns the target T5, CGMP-inhibited cyclic nucleotide phosphodiesterase 3A (PDE3A) (Homo sapiens, UniProt Q14432).
T5 construct: purchased Signal Chem
The assay is described as follows: Enzymatic assay, PDE3A. The format is biochemical.

For assay [11], the target named is T6, CAMP-specific 3′,5′-cyclic phospho-diesterase (PDE4D2) (Homo sapiens, UniProt Q08499).
T6 construct: purchased Signal Chem
The assay is described as follows: Enzymatic assay, PDE4D2. The format is biochemical.

For assay [12], the target named is T7, Nuclear Hormone Androgen Receptor (AR) (Homo sapiens, UniProt P10275).
T7 sequence (P10275 1-920): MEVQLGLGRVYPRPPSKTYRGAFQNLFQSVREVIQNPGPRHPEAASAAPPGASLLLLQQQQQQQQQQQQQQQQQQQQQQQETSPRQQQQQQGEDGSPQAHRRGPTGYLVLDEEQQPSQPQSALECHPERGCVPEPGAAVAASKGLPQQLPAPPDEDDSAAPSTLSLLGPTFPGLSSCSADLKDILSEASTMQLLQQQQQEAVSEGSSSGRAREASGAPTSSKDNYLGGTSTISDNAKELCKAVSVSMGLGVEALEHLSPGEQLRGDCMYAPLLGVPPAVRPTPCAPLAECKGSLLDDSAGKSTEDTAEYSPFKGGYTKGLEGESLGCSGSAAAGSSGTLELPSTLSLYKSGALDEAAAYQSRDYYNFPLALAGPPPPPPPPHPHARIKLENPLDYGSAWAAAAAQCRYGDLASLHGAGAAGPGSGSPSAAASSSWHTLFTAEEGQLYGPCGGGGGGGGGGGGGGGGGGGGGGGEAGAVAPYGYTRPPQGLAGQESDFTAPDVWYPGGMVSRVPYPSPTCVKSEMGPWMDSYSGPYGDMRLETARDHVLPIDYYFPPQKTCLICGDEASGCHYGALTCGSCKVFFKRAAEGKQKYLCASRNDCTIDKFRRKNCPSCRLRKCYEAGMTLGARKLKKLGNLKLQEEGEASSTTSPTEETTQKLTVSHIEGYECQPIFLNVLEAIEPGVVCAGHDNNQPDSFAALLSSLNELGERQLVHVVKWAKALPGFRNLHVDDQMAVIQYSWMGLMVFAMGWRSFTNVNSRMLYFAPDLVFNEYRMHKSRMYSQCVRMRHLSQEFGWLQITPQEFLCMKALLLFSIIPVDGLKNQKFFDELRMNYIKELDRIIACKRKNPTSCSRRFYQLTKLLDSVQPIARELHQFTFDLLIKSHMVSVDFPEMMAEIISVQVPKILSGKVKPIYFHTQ
The assay is described as follows: NHR Nuclear Translocation assay, AR. The format is cell-based.

T4 sequence (Q13224 27-1484, other chains not shown): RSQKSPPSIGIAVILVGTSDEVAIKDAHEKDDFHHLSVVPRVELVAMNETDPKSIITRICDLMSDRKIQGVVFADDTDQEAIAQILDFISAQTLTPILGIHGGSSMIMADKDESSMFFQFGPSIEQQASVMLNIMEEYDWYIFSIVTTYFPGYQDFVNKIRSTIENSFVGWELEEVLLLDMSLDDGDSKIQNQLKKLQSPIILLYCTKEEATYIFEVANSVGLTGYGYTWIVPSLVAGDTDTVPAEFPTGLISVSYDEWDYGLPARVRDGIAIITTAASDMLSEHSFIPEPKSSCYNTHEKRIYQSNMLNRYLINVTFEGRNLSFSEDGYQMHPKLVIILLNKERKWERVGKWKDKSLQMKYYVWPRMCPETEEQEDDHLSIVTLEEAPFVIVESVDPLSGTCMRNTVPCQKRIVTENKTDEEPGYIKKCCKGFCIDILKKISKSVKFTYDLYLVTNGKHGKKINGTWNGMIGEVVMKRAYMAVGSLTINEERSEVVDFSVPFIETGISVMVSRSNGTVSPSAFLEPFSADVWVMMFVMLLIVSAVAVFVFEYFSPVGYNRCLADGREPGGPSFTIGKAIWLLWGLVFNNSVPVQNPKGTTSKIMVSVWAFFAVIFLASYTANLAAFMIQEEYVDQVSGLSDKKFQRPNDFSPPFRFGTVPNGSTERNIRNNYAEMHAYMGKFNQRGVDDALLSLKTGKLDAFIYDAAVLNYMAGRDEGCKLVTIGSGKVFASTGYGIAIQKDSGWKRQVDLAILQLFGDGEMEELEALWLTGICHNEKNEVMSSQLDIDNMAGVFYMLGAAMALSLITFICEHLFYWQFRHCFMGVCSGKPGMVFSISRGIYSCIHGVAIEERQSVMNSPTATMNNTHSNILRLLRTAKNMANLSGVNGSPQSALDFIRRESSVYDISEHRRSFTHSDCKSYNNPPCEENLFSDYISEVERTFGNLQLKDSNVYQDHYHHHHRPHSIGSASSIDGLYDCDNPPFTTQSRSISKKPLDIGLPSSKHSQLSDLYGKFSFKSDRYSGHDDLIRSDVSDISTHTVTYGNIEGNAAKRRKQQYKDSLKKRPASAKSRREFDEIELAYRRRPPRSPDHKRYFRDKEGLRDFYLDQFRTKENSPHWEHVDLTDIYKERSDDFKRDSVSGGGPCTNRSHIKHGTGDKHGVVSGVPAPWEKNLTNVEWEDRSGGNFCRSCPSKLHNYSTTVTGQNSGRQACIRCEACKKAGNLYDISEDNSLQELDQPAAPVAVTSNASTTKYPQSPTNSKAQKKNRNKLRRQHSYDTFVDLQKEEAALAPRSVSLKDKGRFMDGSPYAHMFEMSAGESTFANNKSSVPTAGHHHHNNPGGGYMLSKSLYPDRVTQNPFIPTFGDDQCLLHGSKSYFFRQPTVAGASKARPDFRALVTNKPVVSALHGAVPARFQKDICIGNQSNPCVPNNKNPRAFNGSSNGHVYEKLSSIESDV
Sequence of Dopamine Receptor D2 (DRD2S) (P14416 1-414 isoform P14416-2): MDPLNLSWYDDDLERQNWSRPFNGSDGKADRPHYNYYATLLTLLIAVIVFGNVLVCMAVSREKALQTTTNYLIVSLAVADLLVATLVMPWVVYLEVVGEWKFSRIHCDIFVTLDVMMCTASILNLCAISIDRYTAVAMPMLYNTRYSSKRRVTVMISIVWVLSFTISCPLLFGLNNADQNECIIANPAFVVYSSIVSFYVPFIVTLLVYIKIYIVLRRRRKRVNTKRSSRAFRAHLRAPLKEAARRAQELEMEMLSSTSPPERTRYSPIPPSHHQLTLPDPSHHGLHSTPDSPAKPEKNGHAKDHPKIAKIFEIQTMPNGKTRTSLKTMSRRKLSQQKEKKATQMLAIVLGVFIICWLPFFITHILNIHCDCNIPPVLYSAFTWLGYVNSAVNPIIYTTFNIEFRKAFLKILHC
T3 sequence (P43681 29-627 limits assumed): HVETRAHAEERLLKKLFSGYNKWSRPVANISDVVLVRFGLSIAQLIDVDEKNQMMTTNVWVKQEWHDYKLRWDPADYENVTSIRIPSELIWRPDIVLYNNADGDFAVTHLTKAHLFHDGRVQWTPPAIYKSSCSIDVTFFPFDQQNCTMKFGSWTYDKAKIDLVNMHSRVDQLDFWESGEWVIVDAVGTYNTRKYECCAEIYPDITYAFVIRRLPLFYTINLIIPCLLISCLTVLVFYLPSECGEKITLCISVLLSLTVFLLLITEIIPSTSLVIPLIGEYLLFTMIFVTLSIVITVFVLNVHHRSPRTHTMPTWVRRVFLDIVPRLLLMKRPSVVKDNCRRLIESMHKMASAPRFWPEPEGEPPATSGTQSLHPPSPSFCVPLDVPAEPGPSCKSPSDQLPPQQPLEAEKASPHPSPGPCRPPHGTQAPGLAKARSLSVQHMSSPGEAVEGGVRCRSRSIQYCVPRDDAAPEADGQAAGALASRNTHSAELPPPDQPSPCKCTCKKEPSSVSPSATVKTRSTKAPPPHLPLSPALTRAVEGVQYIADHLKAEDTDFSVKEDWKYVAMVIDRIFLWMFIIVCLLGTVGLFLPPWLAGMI
T3 sequence (P17787 26-502): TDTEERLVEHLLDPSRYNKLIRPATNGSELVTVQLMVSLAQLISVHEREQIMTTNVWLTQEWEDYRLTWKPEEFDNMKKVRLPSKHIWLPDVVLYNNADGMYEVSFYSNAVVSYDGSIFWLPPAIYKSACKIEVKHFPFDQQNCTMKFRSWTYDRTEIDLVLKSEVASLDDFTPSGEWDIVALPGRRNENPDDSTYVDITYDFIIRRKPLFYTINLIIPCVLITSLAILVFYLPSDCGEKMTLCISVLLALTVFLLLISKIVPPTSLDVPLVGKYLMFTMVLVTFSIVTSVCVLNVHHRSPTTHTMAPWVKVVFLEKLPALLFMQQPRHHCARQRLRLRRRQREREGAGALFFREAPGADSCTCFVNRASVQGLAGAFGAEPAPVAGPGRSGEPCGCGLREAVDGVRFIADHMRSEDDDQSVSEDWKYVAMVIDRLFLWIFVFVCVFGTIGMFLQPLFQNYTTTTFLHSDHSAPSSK
Sequence of Opioid Receptor Kappa 1 (OPRK1) (P41145 whole entry): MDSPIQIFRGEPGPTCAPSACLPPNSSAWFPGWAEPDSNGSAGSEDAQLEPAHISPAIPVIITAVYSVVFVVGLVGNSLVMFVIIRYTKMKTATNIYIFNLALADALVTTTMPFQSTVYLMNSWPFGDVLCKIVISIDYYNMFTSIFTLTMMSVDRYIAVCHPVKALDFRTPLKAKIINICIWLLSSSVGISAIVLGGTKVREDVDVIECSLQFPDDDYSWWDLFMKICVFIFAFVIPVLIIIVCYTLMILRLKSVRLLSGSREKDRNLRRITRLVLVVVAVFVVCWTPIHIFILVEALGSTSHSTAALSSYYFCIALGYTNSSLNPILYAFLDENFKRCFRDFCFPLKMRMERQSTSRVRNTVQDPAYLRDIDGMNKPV
Sequence of Arginine Vasopressin Receptor 1A (AVPR1A) (P37288 whole entry): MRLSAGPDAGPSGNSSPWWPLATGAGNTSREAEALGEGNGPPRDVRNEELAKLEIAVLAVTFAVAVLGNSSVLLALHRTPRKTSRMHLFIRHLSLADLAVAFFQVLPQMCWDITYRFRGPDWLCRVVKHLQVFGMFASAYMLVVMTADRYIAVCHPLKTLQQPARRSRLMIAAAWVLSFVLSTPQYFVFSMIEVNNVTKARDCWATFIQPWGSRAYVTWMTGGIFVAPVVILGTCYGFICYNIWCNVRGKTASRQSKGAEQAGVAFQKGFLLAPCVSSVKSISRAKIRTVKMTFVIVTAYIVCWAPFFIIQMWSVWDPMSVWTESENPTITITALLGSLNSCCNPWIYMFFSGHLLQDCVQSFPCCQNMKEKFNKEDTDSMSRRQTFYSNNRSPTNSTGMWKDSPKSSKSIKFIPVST
Sequence of Adrenergic Receptor β2 (ADRB2) (P07550 whole entry): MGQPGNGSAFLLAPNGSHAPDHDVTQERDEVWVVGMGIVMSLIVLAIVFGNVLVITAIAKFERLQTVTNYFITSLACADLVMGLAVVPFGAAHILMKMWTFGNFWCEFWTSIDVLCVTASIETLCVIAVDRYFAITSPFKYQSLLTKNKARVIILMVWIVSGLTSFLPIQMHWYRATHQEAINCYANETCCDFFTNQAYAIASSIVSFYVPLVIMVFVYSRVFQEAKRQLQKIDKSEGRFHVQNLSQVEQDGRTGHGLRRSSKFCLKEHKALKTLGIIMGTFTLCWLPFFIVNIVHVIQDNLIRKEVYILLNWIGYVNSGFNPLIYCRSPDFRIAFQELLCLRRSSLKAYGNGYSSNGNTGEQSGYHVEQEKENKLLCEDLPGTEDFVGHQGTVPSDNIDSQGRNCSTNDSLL
T6 sequence (Q08499 303-809 limits assumed): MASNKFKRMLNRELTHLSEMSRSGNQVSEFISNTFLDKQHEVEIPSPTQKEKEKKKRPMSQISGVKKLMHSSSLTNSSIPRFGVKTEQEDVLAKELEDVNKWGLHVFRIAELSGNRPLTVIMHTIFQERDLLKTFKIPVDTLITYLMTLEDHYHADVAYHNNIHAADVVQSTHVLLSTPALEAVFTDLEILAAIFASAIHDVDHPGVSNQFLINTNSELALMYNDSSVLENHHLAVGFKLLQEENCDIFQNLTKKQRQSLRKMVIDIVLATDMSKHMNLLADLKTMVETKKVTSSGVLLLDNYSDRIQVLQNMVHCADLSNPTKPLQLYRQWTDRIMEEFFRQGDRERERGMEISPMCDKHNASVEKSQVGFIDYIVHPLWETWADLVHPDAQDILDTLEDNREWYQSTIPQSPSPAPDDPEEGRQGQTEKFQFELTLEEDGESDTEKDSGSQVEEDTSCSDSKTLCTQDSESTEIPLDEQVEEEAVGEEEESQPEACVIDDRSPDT

Regarding `CNC(C)C(=O)c1c[nH]c2ccc(Cl)cc12` (stereo not drawn) [BK-5Cl-NM-AMT, 1-(5-chloro-1H-indol-3-yl)-2-(methylamino) propan-1-one hydrochloride], the EC50 in assay [1], in assay [2], in assay [3], in assay [4], in assay [5] and in assay [6] was above 10 µM in each case. The EC50 in assay [7], in assay [8], in assay [9] and in assay [12] was above 10 µM each time. The IC50 in [1] was 8.68 µM; in assay [2], above 10 µM; in assay [3], above 10 µM; in [4] it was above 10 µM; in assay [5], 6.22 µM; in [6], above 10 µM. For the same molecule, the IC50 in [7], in assay [8], in assay [9], in [10], in [11] and in assay [12] was above 10 µM each time.

With `CNC(C)C(=O)c1c[nH]c2ccc(Br)cc12` (stereo not drawn) [BK-5Br-NM-AMT, 1-(5-bromo-1H-indol-3-yl)-2-(methylamino) propan-1-one hydrochloride], the EC50 in [1], in [2], in assay [3], in assay [4], in [5] and in assay [6] was above 10 µM in each case. Also, the EC50 in assay [7], in assay [8], in assay [9] and in assay [12] was above 10 µM throughout. The IC50 in [1] was 5.44 µM; in assay [2], above 10 µM; in [3], above 10 µM; in assay [4], above 10 µM; in assay [5], 4.26 µM; in assay [6] it was above 10 µM. Moreover, the IC50 in assay [7], in assay [8], in assay [9], in [10], in [11] and in assay [12] was above 10 µM each time.

As to `CNC(C)C(=O)c1c[nH]c2ccc(F)cc12` (stereo not drawn) [BK-5F-NM-AMT, 1-(5-Fluoro-1H-indol-3-yl)-2-(methylamino) propan-1-one hydrochloride], the EC50 in assay [1], in [2], in assay [3], in assay [4], in [5] and in assay [6] was above 10 µM each time. Moreover, the EC50 in [7], in assay [8], in assay [9] and in assay [12] was above 10 µM in each case. For the same molecule, the IC50 was above 10 µM in [1]; above 10 µM in assay [2]; above 10 µM in [3]; above 10 µM in assay [4]; 5.2 µM in assay [5]; above 10 µM in assay [6]. Further, the IC50 in assay [7], in assay [8], in assay [9], in assay [10], in [11] and in assay [12] was above 10 µM in each case.

One may read the EC50 as the concentration needed to bring the measured effect to its halfway point. A word on the IC50: it is the midpoint of a concentration-inhibition curve.
